# From paper PMC7718273 (Scientific Reports, 2020)
# Read-outs that look alike come from different tables or passages of the source.
# Assays:
# [1] = Microsomal stability, monkey; type: in vitro ADME; conditions: liver microsomes, pH 7.4, monkey (Mk), 0.5 mg/mL, NADPH, read-out: Microsomal stability (% remaining at 60 min)
# Description: (§1) Aliquots were then transferred in duplicate to: (i) a final concentration plate that was immediately quenched with 23.6 ng/mL internal standard (IS, chlorpropamide) in acetonitrile (ACN) or (ii) tubes, which were centrifuged for 5 min at 4℃ (14,000 rpm). The samples were subjected to LC–MS/MS analysis on an AB Sciex 4000 Q Trap hybrid triple quadrupole linear ion-trap MS (AB Sciex, Framingham, MA) coupled to an Agilent 1200 HPLC (Agilent Tech. Santa Clara, CA) with a reverse-phase Kinetex XB-C18 column (2.1 × 100 mm, 2.6 µm; Phenomenex). Mobile phases were comprised of 0.1% formic acid (FA) in water (A) and 0.1 FA in ACN (B). Data analysis was performed using […] (Ver. 1.6.1).
# [2] = molecular target: T1, hERG (Homo sapiens, UniProt Q12809); assay: hERG binding assay based on fluorescence polarization
# T1 construct: purchased Invitrogen; host or cells: membrane preparation of the kit
# T1 sequence (Q12809 whole entry): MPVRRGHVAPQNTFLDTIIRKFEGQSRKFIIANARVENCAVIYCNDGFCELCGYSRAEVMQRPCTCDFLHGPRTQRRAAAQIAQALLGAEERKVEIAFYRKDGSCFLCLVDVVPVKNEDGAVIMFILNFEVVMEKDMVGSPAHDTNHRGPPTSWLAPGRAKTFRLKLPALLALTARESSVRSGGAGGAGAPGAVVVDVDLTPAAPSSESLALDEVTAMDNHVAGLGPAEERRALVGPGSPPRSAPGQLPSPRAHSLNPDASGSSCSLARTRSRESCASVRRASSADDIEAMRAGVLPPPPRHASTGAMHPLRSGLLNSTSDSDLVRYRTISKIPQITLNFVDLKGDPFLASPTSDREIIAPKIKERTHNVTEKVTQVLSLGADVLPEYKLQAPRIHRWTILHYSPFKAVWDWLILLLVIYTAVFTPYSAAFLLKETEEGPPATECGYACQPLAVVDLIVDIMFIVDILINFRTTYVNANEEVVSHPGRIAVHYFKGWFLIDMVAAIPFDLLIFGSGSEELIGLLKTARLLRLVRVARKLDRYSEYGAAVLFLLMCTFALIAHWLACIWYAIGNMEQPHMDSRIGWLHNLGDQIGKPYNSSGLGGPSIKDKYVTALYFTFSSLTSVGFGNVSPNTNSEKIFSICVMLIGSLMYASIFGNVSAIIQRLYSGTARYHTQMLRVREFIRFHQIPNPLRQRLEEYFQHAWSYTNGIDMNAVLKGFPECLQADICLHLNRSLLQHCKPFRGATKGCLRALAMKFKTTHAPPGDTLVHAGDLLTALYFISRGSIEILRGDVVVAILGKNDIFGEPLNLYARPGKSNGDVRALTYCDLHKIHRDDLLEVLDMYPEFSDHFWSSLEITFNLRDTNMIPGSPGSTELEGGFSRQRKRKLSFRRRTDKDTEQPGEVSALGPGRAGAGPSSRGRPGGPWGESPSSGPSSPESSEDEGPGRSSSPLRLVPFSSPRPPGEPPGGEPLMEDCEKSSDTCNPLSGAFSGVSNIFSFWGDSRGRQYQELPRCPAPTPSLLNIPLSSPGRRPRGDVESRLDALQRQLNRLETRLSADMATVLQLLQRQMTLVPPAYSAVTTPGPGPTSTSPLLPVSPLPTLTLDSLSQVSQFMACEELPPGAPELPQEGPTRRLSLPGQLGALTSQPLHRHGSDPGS
# Description: Predictor hERG Assay test kits were obtained from Invitrogen (Carlsbad, CA). The binding assay was carried out according to the manufacturer’s instructions. […] Working Tracer solution (5 μL) was then added and the plate was allowed to incubate at room temperature for at least 1 h, and then fluorescence polarization was measured using the Synergy 4 Hybrid Microplate Reader from BioTek Instruments (Winooski, VT) with 530/25 excitation and 590/35 emission filters along with a 570 nm cut off dichroic mirror. Polarization values were calculated automatically using Gen Data Analysis Software (BioTek Instruments). The above protocol is described in detail in the Invitrogen’s application note.
# [3] = Plasma stability, mouse; type: in vitro ADME; conditions: pH 7.4, mouse (M), read-out: Plasma stability (% remaining at 60 min)
# Description: as §1
# [4] = system: ob/ob mice; assay: Chronic study using ob/ob mice (4 weeks)
# Description: (a) Nonfasting blood glucose levels in ob/ob mice. […] (g) The plasma levels of ALT (GPT), AST (GOT), TG, total cholesterol and NEFA in ob/ob mice. […] (i) Relative expression of genes related to intrahepatic lipogenic gene (GCK), fatty acid and TG synthesis genes (FASN, SREBP and APOC3, LIPIN1), β-oxidation genes (CPT1α, MCAD and PPARα) and FGF21 related genes (ATF4, CHOP, FGF21 and β-klotho) in liver and FGF21 related genes (AdipoQ and β-klotho) in white adipose tissue of ob/ob mice.
# During the observation period, mice were monitored for glucose profiles and weighed. […] Under anesthesia, blood was promptly collected by orbital bleeding and then harvested. Liver tissue was then collected. Serum ALT, AST, TG, total cholesterol, and NEFA levels were assessed by KNOTUS (Incheon, Korea).
# [5] = Plasma protein binding, mouse; type: in vitro ADME; conditions: mouse (M), read-out: Plasma protein binding (% bound) (converted)
# [6] = Pharmacokinetic study in mice; type: in vivo, C57BL/6J mice; conditions: mouse, plasma
# Description: Mice were administered with BR103354 either p.o. […] (2 mg/kg). […] These samples were then centrifuged at 13,000 rpm for 10 min to obtain plasma. […] Samples were analyzed on an API 4500 Qtrap LC‐MS/MS system (Applied Biosystems/MDS Sciex, Toronto, Canada) coupled with Agilent 1200 HPLC (Agilent Technologies, Santa Clara, CA). Plasma concentration–time data were analyzed by non-compartmental method using the nonlinear least-squares regression program WinNonlin (Pharsight, Mountain View, CA).
# [7] = Plasma stability, rat; type: in vitro ADME; conditions: pH 7.4, rat (R), read-out: Plasma stability (% remaining at 60 min)
# Description: as §1
# [8] = Plasma stability, human; type: in vitro ADME; conditions: pH 7.4, read-out: Plasma stability (% remaining at 60 min)
# Description: as §1
# [9] = molecular target: T2, serum FAP (Mus musculus, UniProt P97321); assay: IC50 on serum FAP, mice; type: biochemical
# T2 construct: from tissue; host or cells: mouse serum/plasma (ob/ob and C57BL/6J mice)
# T2 sequence (P97321 24-761 limits assumed): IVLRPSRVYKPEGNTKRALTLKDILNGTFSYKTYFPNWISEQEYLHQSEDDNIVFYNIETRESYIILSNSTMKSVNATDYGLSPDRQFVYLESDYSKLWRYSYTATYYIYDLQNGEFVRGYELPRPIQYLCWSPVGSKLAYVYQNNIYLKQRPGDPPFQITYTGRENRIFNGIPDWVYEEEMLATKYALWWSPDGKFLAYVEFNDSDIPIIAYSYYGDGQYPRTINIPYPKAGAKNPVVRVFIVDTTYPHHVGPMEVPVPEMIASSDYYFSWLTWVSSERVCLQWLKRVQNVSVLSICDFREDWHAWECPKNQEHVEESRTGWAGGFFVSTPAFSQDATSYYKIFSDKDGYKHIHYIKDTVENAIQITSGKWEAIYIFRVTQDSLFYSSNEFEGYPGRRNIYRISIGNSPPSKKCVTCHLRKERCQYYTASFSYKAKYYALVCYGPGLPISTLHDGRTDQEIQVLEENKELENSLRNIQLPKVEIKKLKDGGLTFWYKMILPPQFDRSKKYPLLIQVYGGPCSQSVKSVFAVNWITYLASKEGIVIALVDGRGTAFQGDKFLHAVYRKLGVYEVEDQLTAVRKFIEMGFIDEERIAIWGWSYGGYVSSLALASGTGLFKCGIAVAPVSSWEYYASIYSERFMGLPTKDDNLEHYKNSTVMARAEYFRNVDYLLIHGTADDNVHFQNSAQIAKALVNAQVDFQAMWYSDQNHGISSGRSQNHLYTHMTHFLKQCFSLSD
# [10] = system: T3, FAP; assay: In vivo study using CDAHFD mice: FAP activity at week 14; design: species or system C57BL/6J mice; conditions: 10 and 30 mg/kg p.o. for 10 weeks, vs vehicle
# T3 construct: from tissue; host or cells: mouse serum/plasma (ob/ob and C57BL/6J mice)
# Description: C57BL/6J mice were fed normal chow diet (n = 5) or choline-deficient, L-amino acid-defined, high-fat diet (CDAHFD) for 4 weeks to induce NASH (n = 8–10/group). […] (a) Relative FAP activity was assessed by FRET-quench and serum FGF21 level at week 14. […] (c) Steatosis scores ranged from 0 to 3 (normal = 0, minimal = 1, moderate = 2, marked = 3) were determined. Hepatic steatosis and fibrosis (Picrosirius red stain) were analyzed in a blinded manner or by digital image analyzer. (d–e) Histological evaluations of liver tissue were performed in each group. Paraffin-embedded liver sections were stained with H&E (d) and Sirius red (e). Representative photographs of each group were presented. Images were obtained at 100x (Scale bar = 50 µm).
# Male C57BL/6J mice (5 weeks of age) were fed with a CDAHFD consisting of 60% kcal fat and 0.1% methionine. […] For the CDAHFD model, compound treatments were started at the beginning of week 4 on the diet and continued until week 14. […] Liver tissue was then collected. All other measurements were done similarly as described above. Staining was performed using H&E and Picrosirius red as described previously. Areas of positive Sirius red were quantified by computer-based morphometric analysis.
# [11] = Microsomal stability, dog; type: in vitro ADME; conditions: liver microsomes, pH 7.4, dog (D), 0.5 mg/mL, NADPH, read-out: Microsomal stability (% remaining at 60 min)
# Description: as §1
# [12] = molecular target: T4, serum FAP (Homo sapiens, UniProt Q12884); assay: IC50 on serum FAP, humans; type: biochemical
# T4 construct: also found in human serum as a soluble form lacking the transmembrane domain; from tissue; host or cells: human serum
# T4 sequence (Q12884 24-760 limits assumed): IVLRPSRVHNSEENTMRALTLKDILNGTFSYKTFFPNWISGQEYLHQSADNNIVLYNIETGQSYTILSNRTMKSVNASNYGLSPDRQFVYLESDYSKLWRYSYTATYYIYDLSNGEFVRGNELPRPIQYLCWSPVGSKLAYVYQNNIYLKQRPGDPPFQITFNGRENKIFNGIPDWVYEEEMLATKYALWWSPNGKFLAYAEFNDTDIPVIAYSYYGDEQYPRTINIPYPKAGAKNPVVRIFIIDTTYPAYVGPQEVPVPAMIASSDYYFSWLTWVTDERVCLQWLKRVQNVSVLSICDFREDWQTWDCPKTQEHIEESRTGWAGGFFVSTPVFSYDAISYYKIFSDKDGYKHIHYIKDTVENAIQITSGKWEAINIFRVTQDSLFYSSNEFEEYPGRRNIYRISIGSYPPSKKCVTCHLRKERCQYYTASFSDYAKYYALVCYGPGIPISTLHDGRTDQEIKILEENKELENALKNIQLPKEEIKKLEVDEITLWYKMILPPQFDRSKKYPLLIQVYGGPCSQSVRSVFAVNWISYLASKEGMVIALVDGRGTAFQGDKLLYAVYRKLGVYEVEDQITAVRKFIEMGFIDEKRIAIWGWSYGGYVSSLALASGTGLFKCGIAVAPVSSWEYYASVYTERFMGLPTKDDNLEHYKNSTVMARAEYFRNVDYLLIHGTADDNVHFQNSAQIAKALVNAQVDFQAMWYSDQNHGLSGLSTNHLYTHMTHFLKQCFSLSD
# [13] = male, C57BL/6J, po, p.o. 1 mg/kg
# [14] = male, C57BL/6J, po, p.o. 5 mg/kg
# [15] = male, C57BL/6J, po, p.o. 10 mg/kg
# [16] = male, C57BL/6J, po, p.o. 100 mg/kg
# [17] = male, C57BL/6J, po, p.o. 200 mg/kg
smiles,measurement,setting,value
"N#Cc1ccc(Cc2nc(C(=O)NCC(=O)N3CC(F)(F)C[C@H]3C#N)cs2)cc1 [BR103354, (S)-N-(2-(2-cyano-4,4-difluoropyrrolidin-1-yl)-2-oxoethyl)-2-(4-cyanobenzyl)thiazole-4-carboxamide]","remaining at 1 h, 1 µM",[1],81%
same,IC50,[2],> 788000 nM
same,"remaining at 1 h, 1 µM",[3],94%
same,glucose tolerance (oral glucose tolerance test),[4]; 50 mg/kg,improved glucose tolerance significantly
same,"FGF21, ATF4 and CHOP mRNA expression in liver",[4]; 4 weeks,increased
same,liver TG content (Oil red O staining),[4]; 4 weeks,decreased
same,body weight between treatments,[4]; 4 weeks (data not shown),no change
same,ERK phosphorylation in adipose tissues,"[4]; 4 weeks, vs vehicle",increased
same,Serum alanine aminotransferase (ALT),"[4]; 4 weeks, vs vehicle",significantly reduced
same,aspartate aminotransferase (AST),"[4]; 4 weeks, vs vehicle",significantly reduced
same,non-esterified free fatty acid (NEFA) levels,"[4]; 4 weeks, vs vehicle",unaltered
same,serum TG,"[4]; 4 weeks, vs vehicle",unaltered
same,total cholesterol,"[4]; 4 weeks, vs vehicle",significantly reduced
same,nonfasting blood glucose,"[4]; 20 and 50 mg/kg once daily p.o., from 2 weeks, vs vehicle (P < 0.01)",significantly decreased
same,increase of total form of serum FGF21,"[4]; 20 and 50 mg/kg, week 4",approximately 1.4 fold
same,adiponectin level in white adipose tissues,[4]; after 4 weeks of treatment,increased
same,fasting blood glucose levels,[4]; after 4 weeks of treatment,significantly reduced
same,fasting body weights,[4]; after 4 weeks of treatment,significantly reduced
same,insulin levels,[4]; after 4 weeks of treatment,significantly reduced
same,liver weights,[4]; after 4 weeks of treatment,significantly reduced
same,fraction unbound at 1 µg/mL,[5],0.22
same,half-life,"[6]; male, C57BL/6J, po, mice, all doses, read-out: half-life (T1/2), range over doses",1.2 to 4 h
same,AUC(0-t),[6]; [13],3700 ng·h/mL
same,Cmax,[6]; [13],2300 ng/mL
same,Tmax,[6]; [13],0.5 h
same,half-life,"[6]; male, C57BL/6J, po, p.o. 1 mg/kg, read-out: T1/2 (converted)",1.2 h
same,AUC(0-t),[6]; [14],10800 ng·h/mL
same,Cmax,[6]; [14],7200 ng/mL
same,Tmax,[6]; [14],0.5 h
same,half-life,"[6]; male, C57BL/6J, po, p.o. 5 mg/kg, read-out: T1/2 (converted)",1.1 h
same,AUC(0-t),[6]; [15],41100 ng·h/mL
same,Cmax,[6]; [15],19200 ng/mL
same,Tmax,[6]; [15],0.5 h
same,half-life,"[6]; male, C57BL/6J, po, p.o. 10 mg/kg, read-out: T1/2 (converted)",1.2 h
same,AUC(0-t),[6]; [16],17000 ng·h/mL
same,Cmax,[6]; [16],66000 ng/mL
same,Tmax,[6]; [16],1 h
same,half-life,"[6]; male, C57BL/6J, po, p.o. 100 mg/kg, read-out: T1/2 (converted)",4 h
same,AUC(0-t),[6]; [17],29200 ng·h/mL
same,Cmax,[6]; [17],122000 ng/mL
same,Tmax,[6]; [17],1 h
same,half-life,"[6]; male, C57BL/6J, po, p.o. 200 mg/kg, read-out: T1/2 (converted)",3.8 h
same,bioavailability,"[6]; male, C57BL/6J, oral, i.v. 2 mg/kg",48.4%
same,Tmax,"[6]; summary in discussion, species and dose not stated",1 h
same,half-life,"[6]; summary in discussion, species and dose not stated, read-out: T1/2 (converted)",1.2 h
same,"remaining at 1 h, 1 µM",[7],79%
same,"remaining at 1 h, 1 µM",[8],> 100%
same,IC50,"[9]; mice, monkeys and humans together, read-out: serum FAP IC50 values, all three species",27 to 31 nM
same,IC50,[9]; read-out: Serum FAP IC50 (nM): Mouse,31 nM
same,FAP activity,[10],inhibited in a dose-dependent manner
same,"remaining at 1 h, 1 µM",[11],> 100%
same,IC50,[12],29 nM
